The target of assay [1] is T1, Sth1 (ATPase subunit of RSCt, trimeric minimal RSC) (Saccharomyces cerevisiae, UniProt P32597).
T1 sequence (P32597 301-1097): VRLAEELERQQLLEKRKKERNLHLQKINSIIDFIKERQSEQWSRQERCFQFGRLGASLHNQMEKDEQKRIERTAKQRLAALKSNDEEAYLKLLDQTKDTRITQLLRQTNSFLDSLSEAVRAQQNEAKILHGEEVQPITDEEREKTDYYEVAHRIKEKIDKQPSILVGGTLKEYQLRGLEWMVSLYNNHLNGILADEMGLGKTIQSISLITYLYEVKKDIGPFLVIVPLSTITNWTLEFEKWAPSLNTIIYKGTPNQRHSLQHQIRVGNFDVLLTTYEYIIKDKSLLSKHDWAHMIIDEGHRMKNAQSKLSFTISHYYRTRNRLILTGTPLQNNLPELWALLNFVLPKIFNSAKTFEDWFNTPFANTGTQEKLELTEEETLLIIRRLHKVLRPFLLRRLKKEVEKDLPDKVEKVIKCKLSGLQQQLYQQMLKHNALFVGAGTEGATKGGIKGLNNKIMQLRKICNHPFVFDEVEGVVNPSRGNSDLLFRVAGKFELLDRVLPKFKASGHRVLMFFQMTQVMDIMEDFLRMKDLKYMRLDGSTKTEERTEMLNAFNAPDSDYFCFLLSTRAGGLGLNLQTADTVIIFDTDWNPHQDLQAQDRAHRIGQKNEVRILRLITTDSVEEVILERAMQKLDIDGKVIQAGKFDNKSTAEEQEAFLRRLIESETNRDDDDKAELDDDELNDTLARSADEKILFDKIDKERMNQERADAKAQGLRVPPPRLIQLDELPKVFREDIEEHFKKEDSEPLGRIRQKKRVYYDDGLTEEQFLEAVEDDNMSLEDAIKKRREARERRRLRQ
T1 sequence (Q12406 1-477 partner): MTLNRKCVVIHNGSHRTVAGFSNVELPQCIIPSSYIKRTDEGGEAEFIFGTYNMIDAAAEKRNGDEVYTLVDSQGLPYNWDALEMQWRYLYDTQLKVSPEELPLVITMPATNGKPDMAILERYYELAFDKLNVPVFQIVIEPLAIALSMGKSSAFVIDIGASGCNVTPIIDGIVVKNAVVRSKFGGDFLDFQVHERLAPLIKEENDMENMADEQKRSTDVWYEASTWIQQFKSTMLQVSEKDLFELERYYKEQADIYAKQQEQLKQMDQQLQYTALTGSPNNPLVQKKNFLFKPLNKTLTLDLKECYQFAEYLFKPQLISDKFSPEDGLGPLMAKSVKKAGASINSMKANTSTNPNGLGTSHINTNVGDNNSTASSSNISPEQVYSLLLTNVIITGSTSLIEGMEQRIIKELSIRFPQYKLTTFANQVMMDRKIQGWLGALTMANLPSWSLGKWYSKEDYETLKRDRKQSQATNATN
T1 sequence (Q05123 1-467 partner): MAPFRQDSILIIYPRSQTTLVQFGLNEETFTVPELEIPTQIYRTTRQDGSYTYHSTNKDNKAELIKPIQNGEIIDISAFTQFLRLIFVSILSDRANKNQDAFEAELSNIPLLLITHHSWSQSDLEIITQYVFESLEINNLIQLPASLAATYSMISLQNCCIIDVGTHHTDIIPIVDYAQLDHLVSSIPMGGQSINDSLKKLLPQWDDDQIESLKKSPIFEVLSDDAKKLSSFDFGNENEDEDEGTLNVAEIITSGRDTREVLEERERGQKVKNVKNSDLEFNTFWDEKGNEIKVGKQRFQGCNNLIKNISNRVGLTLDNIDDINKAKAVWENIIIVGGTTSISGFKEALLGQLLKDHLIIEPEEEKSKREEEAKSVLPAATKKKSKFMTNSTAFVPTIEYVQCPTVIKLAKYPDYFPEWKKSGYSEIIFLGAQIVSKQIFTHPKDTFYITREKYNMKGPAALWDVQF
The assay is classed as binding.

In assay [2] the target is T1, Sth1 (ATPase subunit of RSCt, trimeric minimal RSC). In kind it is binding. This is another data set of the same source.

Like-named read-outs stand apart in the source and are kept apart here.

Take `Nc1ncnc2c1ncn2[C@@H]1O[C@H](COP(=O)(O)OP(=O)(O)NP(=O)(O)O)[C@@H](O)[C@H]1O` [AMP-PNP]: the Kd in assay [1] was found to be 72 ± 6 µM.
For `Nc1ncnc2c1ncn2[C@@H]1O[C@H](COP(=O)(O)OP(=O)(O)O)[C@@H](O)[C@H]1O` [ADP], the Kd in assay [2] was 14 ± 4 µM.
